Experimental data taken from ChEMBL document CHEMBL2086273, “Significant activity of ecdysteroids on the resistance to doxorubicin in mammalian cancer cells expressing the human ABCB1 transporter” (J Med Chem, 2012).

Legend:
[1] = target: T1, ATP-dependent translocase ABCB1 (Homo sapiens, UniProt P08183); test: Inhibition of human ABCB1 expressed in mouse L5178 cells assessed as 95% inhibition of cell proliferation at compound-doxorubicin ratio of 81.5:1 after 48 hrs by MTT assay; format: cell-based; details: l5178, 48 h
T1 sequence (P08183 whole entry): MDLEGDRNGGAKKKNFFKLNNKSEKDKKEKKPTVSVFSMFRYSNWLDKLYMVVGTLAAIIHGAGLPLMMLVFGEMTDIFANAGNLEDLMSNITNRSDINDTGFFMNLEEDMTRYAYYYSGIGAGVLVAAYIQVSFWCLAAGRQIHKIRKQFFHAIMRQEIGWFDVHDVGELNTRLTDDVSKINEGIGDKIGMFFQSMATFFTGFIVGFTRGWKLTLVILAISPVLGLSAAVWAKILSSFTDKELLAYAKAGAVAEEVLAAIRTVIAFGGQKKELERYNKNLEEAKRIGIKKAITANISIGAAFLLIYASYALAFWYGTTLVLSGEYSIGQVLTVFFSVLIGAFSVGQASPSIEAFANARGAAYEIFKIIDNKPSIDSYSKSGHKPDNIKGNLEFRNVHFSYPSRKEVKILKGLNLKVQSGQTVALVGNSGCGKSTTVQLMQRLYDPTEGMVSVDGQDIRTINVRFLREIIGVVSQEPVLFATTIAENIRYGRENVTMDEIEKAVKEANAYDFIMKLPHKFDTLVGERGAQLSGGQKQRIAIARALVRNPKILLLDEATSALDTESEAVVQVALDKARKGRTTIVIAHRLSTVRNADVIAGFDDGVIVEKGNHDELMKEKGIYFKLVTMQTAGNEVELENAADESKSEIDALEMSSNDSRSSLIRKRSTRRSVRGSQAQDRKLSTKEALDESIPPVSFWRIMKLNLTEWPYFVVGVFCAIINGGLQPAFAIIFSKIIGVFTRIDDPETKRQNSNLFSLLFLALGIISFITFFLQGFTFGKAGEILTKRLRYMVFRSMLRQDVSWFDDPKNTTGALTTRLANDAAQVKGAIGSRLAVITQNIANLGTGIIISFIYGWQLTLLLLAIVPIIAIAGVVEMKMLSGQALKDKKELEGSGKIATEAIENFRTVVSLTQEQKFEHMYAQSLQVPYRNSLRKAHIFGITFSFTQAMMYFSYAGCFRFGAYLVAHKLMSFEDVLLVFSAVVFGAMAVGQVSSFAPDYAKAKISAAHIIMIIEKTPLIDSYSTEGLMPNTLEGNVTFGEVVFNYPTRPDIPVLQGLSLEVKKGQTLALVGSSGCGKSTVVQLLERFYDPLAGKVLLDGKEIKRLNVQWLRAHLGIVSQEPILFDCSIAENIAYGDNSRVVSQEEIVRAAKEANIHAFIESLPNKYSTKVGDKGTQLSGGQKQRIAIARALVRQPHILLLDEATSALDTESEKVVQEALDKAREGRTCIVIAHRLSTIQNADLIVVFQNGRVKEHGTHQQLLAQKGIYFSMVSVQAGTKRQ

[2] = target: T1, ATP-dependent translocase ABCB1; test: Inhibition of human ABCB1 expressed in mouse L5178 cells assessed as 75% inhibition of cell proliferation at compound-doxorubicin ratio of 81.5:1 after 48 hrs by MTT assay; format: cell-based; details: l5178, 48 h
[3] = target: T1, ATP-dependent translocase ABCB1; test: Inhibition of human ABCB1 pump expressed in mouse L5178 cells assessed as fluorescence activity ratio at 20 uM for 10 mins by flow cytometry relative to control; format: cell-based; details: l5178, 10 min
[4] = Antiproliferative activity against multidrug-resistant mouse L5178 cells after 72 hrs by MTT assay; format: functional, cell-based; details: L5178, 72 h
[5] = target: T1, ATP-dependent translocase ABCB1; test: Inhibition of human ABCB1 expressed in mouse L5178 cells assessed as 50% inhibition of cell proliferation at compound-doxorubicin ratio of 81.5:1 after 48 hrs by MTT assay; format: cell-based; details: l5178, 48 h
[6] = target: T1, ATP-dependent translocase ABCB1; test: Inhibition of human ABCB1 expressed in mouse L5178 cells assessed as 75% inhibition of cell proliferation at compound-doxorubicin ratio of 20.4:1 after 48 hrs by MTT assay; format: cell-based; details: l5178, 48 h
[7] = target: T1, ATP-dependent translocase ABCB1; test: Inhibition of human ABCB1 expressed in mouse L5178 cells assessed as 50% inhibition of cell proliferation at compound-doxorubicin ratio of 20.4:1 after 48 hrs by MTT assay; format: cell-based; details: l5178, 48 h
[8] = target: T1, ATP-dependent translocase ABCB1; test: Inhibition of human ABCB1 expressed in mouse L5178 cells assessed as 95% inhibition of cell proliferation at compound-doxorubicin ratio of 20.4:1 after 48 hrs by MTT assay; format: cell-based; details: l5178, 48 h
[9] = tested on: Mus musculus; test: Acute toxicity in CFLP mouse at 250 mg/kg, ip administered as single dose; format: organism-based; parameters: dose 250 mg/kg, route intraperitoneal; details: in vivo
[10] = Drug degradation of the compound in hydrochloric acid solution at pH 1.48 assessed as 20E 20,22-acetonide formation at 1 mg/ml; format: physicochemical; details: buffer
[11] = tested on: Mus musculus; test: Acute toxicity in CFLP mouse at 250 mg/kg, ip co-administered with […] doxorubicin after 48 hrs; format: organism-based; parameters: dose 250 mg/kg, route intraperitoneal; details: in vivo
[12] = Half life of the compound in hydrochloric acid solution at pH 1.48 at 1 mg/ml; format: physicochemical

CC(C)(O)CC[C@@H](O)[C@](C)(O)[C@H]1CC[C@]2(O)C3=CC(=O)[C@@H]4C[C@@H](O)[C@@H](O)C[C@]4(C)[C@H]3CC[C@]12C
fractional inhibitory concentration index (FICI) [1]: 0.69 | fractional inhibitory concentration index (FICI) [2]: 0.91 | Ratio [3]: 1.03 | IC50 [4]: 30 µM | fractional inhibitory concentration index (FICI) [5]: 1.18

CC(O)(CO)CC[C@@H](O)[C@](C)(O)[C@H]1CC[C@@]2(O)C3=CC(=O)[C@]4(O)C[C@@H](O)[C@@H](O)C[C@]4(C)[C@H]3CC[C@]12C (stereo partly drawn)
fractional inhibitory concentration index (FICI) [1]: 0.12 | fractional inhibitory concentration index (FICI) [2]: 0.47 | Ratio [3]: 1.32 | IC50 [4]: 30 µM | fractional inhibitory concentration index (FICI) [5]: 2.24

CC(C)(O)CC[C@@H](O)[C@](C)(O)[C@H]1CC[C@@]2(O)C3=CC(=O)[C@@H]4C[C@H](O)[C@@H](O)C[C@]4(C)[C@H]3CC[C@]12C
fractional inhibitory concentration index (FICI) [1]: 0.22 | fractional inhibitory concentration index (FICI) [2]: 0.45 | Ratio [3]: 0.89 | IC50 [4]: 30 µM | fractional inhibitory concentration index (FICI) [5]: 1.16

CC(C)CC[C@H](O)[C@](C)(O)[C@H]1CC[C@@]2(O)C3=CC(=O)[C@@H]4C[C@@H](O)[C@@H](O)C[C@]4(C)[C@H]3[C@H](O)C[C@]12C [AJUGASTERONE C]
Ratio [3]: 1.13 | IC50 [4]: 30 µM | fractional inhibitory concentration index (FICI) [6]: 1.66 | fractional inhibitory concentration index (FICI) [7]: 1.79 | fractional inhibitory concentration index (FICI) [8]: 1.88

CC(C)(O)CC[C@H]1OC(C)(C)O[C@]1(C)[C@H]1CC[C@@]2(O)C3=CC(=O)[C@@H]4C[C@H]5OC(C)(C)O[C@H]5C[C@]4(C)[C@H]3CC[C@]12C
Activity [9]: Non-toxic | Ratio [3]: 19.13 | Drug degradation [10]: Active | fractional inhibitory concentration index (FICI) [6]: 0.14 | Activity [11]: Non-toxic | fractional inhibitory concentration index (FICI) [7]: 0.28 | fractional inhibitory concentration index (FICI) [8]: 0.073 | half-life at 1 mg/ml [12]: 7.3 min
